Tests used:
Format in all cases: cell-based
[1] = system: Mosaic cells cultured on HF scaffolds; assay: Mosaic assay Adriamycin dose test (fractal dimension of cell morphology); details: 0.5 and 1 μg/mL ADR; only with Mosaic cells cultured on HF scaffolds (not NT); FIG. 6e, 6f
Text: To develop the mosaic assay, populations of fluorescent cells were mixed with optically silent cells and monitored for over 14 days in the mouse cell line, and over 5 days in the human cell line. For long-term live cell labeling, adenovirus transduction of eGFP (Vector Biolabs, #1060) was utilized at an MOI of 1000 in the mouse podocyte cell line, and MOI of 10 in the human podocyte cell line. Cells were transduced one day after seeding and attachment, when cultures were 75% confluent. Virus handling protocols were used, including wearing additional disposable PPE (lab coat, shoe covers, elbow-length and double gloves, and face mask). […]
The next day, virus was removed and puromycin was applied at 8 μg/mL to select fluorescent cells for 48 hours. […] The mosaic assay was assessed using the Zeiss […] super resolution confocal microscope to allow sufficient resolution to see interdigitating foot processes. […]
Images of single fluorescent cells from the mosaic assay (used in topography, model virus, Adriamycin, and patient serum experiments) were first processed using Zeiss's ZenDesk software to facilitate delineation of whole single cell morphology as follows: the FITC channel was adjusted by setting gamma to 2.5 and adjusting the white point to 30. […] The sequence was recorded as a macro to facilitate automation and thus performed blindly and equivalently to all sample images. […]

[2] = system: human podocyte cell line on HF substrates; assay: YAP inhibition study, Mosaic assay fractal dimension of whole cell morphology; details: dose of 1 μM, in comparison to the inhibitor-free control, FIG. 13e
Protocol: Mosaic Assay: Mosaic Podo/Tert256 human podocytes (a mixture of GFP-labelled cells and non-fluorescent cells at a ratio of 1:11) were cultured and seeded in the same way as regular human podocytes as described above. At the study endpoint, cells were fixed with PFA, stained with rhodamine-wheat germ agglutinin (WGA), and mounted with DAPI-containing mounting media as described above. Samples were imaged via confocal microscopy using a Zeiss LSM 880 Super Resolution Confocal microscope to allow sufficient resolution to visualize interdigitated morphology. Z-stacked images spanning the entire section with visible signals were taken for each sample. The images were first processed using Zeiss's ZenDesk software to increase the contrast of GFP-positive cells' morphology as follows: the FITC channel was adjusted by setting gamma to 2.5 and adjusting the white point to 30. The DAPI channel's white point was adjusted to 80. In Photoshop or Fiji, the magic wand tool was used to select single fluorescent cells, create binary masks, and export binary images of single cells. Single cells were verified by overlaying nuclei with the cell images to ensure each cell only contained one nucleus. Binary images were then outlined in Fiji, and fractal analysis was performed using the FracLac plugin where the standard box-counting algorithm was used, with the background locked to white. […]

[3] = system: human podocyte cell line on HF substrates; assay: Lactate dehydrogenase (LDH) release assay of Mosaic assay cells; details: dose of 1 μM, FIG. 13d
Protocol: YAP Inhibition Study: HF and NT scaffolds were prepared as described above. Mosaic human podocytes were seeded on top of the scaffolds at a concentration of 50,000 cells/cm^2 (100,000 cells per scaffold). […] Samples were fixed on day 5. Media was collected and lactate dehydrogenase assay (LDH) assay (Cayman) was performed according to manufacturer's protocol to validate cell viability. Mosaic assay imaging and analysis were performed as described above.

Row | Compound | injury response: fractal dimension of cell morphology [1] | Df of podocyte morphology [2] | cell viability (LDH release) [3]
1 | COc1cccc2c1C(=O)c1c(O)c3c(c(O)c1C2=O)C[C@@](O)(C(=O)CO)C[C@@H]3O[C@H]1C[C@H](N)[C@H](O)[C@H](C)O1 [Adriamycin, doxorubicin] | reduced fractal dimension of cell morphology |  | 
2 | Verteporfin |  | decreased significantly | did not show any significant deterioration of cell viability
